# In the supplement of paper PMC10307832:
# Compound: CCOC1=CC=CC=C1N=NC2=C(NN(C2=O)C3=NC(=CS3)C4=CC=CC=C4)C [BAM7] + CC(=O)c1c(C)c2cnc(Nc3ccc(N4CCNCC4)cn3)nc2n(C2CCCC2)c1=O [Palbociclib] (partner 0.5 µM)
# Assay: relative viability (nuclei count vs DMSO), 5 days (fraction); higher = more cells survive
# Conditions: first compound 50 µM
# How it was run: (§1)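 Each reported value is a median over duplicate plates. It expresses relative viability: treated-well nuclei count divided by vehicle-well nuclei count. Lung cancer cell lines in 1536-well plates were dosed by pin tool a day after seeding, alone with one drug or with a fixed anchor-drug dose plus five library-drug doses (not always all listed) in √10 steps, and nuclei were counted after 5 days.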
row,Cell Line,relative viability
1,NCI-H2405,0.553
2,HOP-62,0.491
3,HCC-44,0.981
4,SW 900,0.596
5,LU99A,0.414
6,BEN,0.492
7,HARA,0.243
8,HCC-78,0.45

# Compound: CCOC1=CC=CC=C1N=NC2=C(NN(C2=O)C3=NC(=CS3)C4=CC=CC=C4)C [BAM7] + COc1cccc2cc(-c3nc([C@H]4CC[C@H](C(=O)O)CC4)n4ncnc(N)c34)[nH]c12 [OSI-027] (partner 0.5 µM)
# Assay: as above
# Conditions: first compound 0.5 µM
# How it was run: as §1
row,Cell Line,relative viability
1,NCI-H2087,0.818
2,NCI-H2342,0.584
3,SK-MES-1,0.573
4,H3255,0.593
5,COR-L23,0.772
6,COR-L 105,0.688
7,LOU-NH91,0.717
8,ChaGo-K-1,0.444
9,NCI-H2170,0.688
10,NCI-H2405,0.623
11,HOP-62,0.888
12,HCC-44,0.534
13,SW 900,0.194
14,LU99A,0.256
15,BEN,0.306
16,HARA,0.53
17,HCC-78,0.39

# Same assay, conditions: first compound 5 µM
row,Cell Line,relative viability
1,NCI-H2087,0.552
2,NCI-H2342,0.587
3,SK-MES-1,0.549
4,H3255,0.622
5,COR-L23,0.74
6,COR-L 105,0.579
7,LOU-NH91,0.729
8,ChaGo-K-1,0.481
9,NCI-H2170,0.592
10,NCI-H2405,0.686
11,HOP-62,0.87
12,HCC-44,0.61
13,SW 900,0.539
14,LU99A,0.29
15,BEN,0.299
16,HARA,0.63
17,HCC-78,0.372

# Same assay, conditions: first compound 15.81 µM
row,Cell Line,relative viability
1,NCI-H2087,0.441
2,NCI-H2342,0.604
3,SK-MES-1,0.545
4,H3255,0.443
5,COR-L23,0.802
6,COR-L 105,0.73
7,LOU-NH91,0.729
8,ChaGo-K-1,0.52
9,NCI-H2170,0.635
10,NCI-H2405,0.608
11,HOP-62,0.808
12,HCC-44,0.476
13,SW 900,0.545
14,LU99A,0.347
15,BEN,0.314
16,HARA,0.468
17,HCC-78,0.423

# Same assay, conditions: first compound 50 µM
row,Cell Line,relative viability
1,NCI-H2087,0.559
2,NCI-H2342,0.566
3,SK-MES-1,0.663
4,H3255,0.568
5,COR-L23,0.858
6,COR-L 105,0.713
7,LOU-NH91,0.801
8,ChaGo-K-1,0.525
9,NCI-H2170,0.72
10,NCI-H2405,0.683
11,HOP-62,0.92
12,HCC-44,0.505
13,SW 900,0.609
14,LU99A,0.322
15,BEN,0.326
16,HARA,0.485
17,HCC-78,0.384

# Compound: CCOC1=CC=CC=C1N=NC2=C(NN(C2=O)C3=NC(=CS3)C4=CC=CC=C4)C [BAM7] + N=C(N)NC(=N)NCCc1ccccc1 [Phenformin] (partner 250 µM)
# Assay: as above
# Conditions: first compound 0.5 µM
# How it was run: as §1
row,Cell Line,relative viability
1,NCI-H2087,0.464
2,NCI-H2342,0.59
3,SK-MES-1,0.721
4,H3255,0.353
5,COR-L23,0.411
6,COR-L 105,0.516
7,LOU-NH91,0.689
8,ChaGo-K-1,0.425
9,NCI-H2170,0.385
10,NCI-H2405,0.395
11,HOP-62,0.668
12,HCC-44,0.351
13,SW 900,0.548
14,LU99A,0.802
15,BEN,0.257
16,HARA,0.425
17,HCC-78,0.619

# Same assay, conditions: first compound 5 µM
row,Cell Line,relative viability
1,NCI-H2087,0.473
2,NCI-H2342,0.739
3,SK-MES-1,0.724
4,H3255,0.343
5,COR-L23,0.5
6,COR-L 105,0.503
7,LOU-NH91,0.795
8,ChaGo-K-1,0.351
9,NCI-H2170,0.362
10,NCI-H2405,0.411
11,HOP-62,0.867
12,HCC-44,0.252
13,SW 900,0.544
14,LU99A,0.819
15,BEN,0.248
16,HARA,0.51
17,HCC-78,0.583

# Same assay, conditions: first compound 15.81 µM
row,Cell Line,relative viability
1,NCI-H2087,0.43
2,NCI-H2342,0.594
3,SK-MES-1,0.607
4,H3255,0.386
5,COR-L23,0.443
6,COR-L 105,0.551
7,LOU-NH91,0.66
8,ChaGo-K-1,0.393
9,NCI-H2170,0.388
10,NCI-H2405,0.416
11,HOP-62,0.664
12,HCC-44,0.172
13,SW 900,0.576
14,LU99A,0.896
15,BEN,0.286
16,HARA,0.431
17,HCC-78,0.796

# Same assay, conditions: first compound 50 µM
row,Cell Line,relative viability
1,NCI-H2087,0.49
2,NCI-H2342,0.521
3,SK-MES-1,0.659
4,H3255,0.384
5,COR-L23,0.424
6,COR-L 105,0.534
7,LOU-NH91,0.66
8,ChaGo-K-1,0.394
9,NCI-H2170,0.371
10,NCI-H2405,0.435
11,HOP-62,0.714
12,HCC-44,0.273
13,SW 900,0.759
14,LU99A,0.94
15,BEN,0.294
16,HARA,0.428
17,HCC-78,0.777
